According to patent US11001570B2, “6-amino-quinolinone compounds and derivatives as BCL6 inhibitors” (Boehringer Ingelheim International GmbH, priority 2016, dated 2021):

Target: T1, BCL6::BCOR (Homo sapiens, UniProt P41182, C67R/C84N/C8Q)
T1 construct: BCL6 (amino acids 5 to 129, with the following changes to the natural protein); made in house; host or cells: E. coli
Experiment: BCL6::BCOR ULight TR-FRET assay
Assay type: binding
Description: Biological Methods BCL6::BCOR ULight TR-FRET Assay:
Biotinylated BCL6 protein corresponding to BCL6 (amino acids 5 to 129, with the following changes to the natural protein: C8Q, C67R, C84N) is expressed in E. coli with a carboxy-terminal Avi tag (amino acid sequence […]). The BCOR ULight peptide uses a direct carboxy-terminal ULight tag (PerkinElmer). The sequence of the peptide is CRSEIISTAPSSWVVPGP, with the amino terminus acetylated and the ULight tag attached to the cysteine. Compounds are dispensed onto assay plates (Proxiplate 384 PLUS, white, PerkinElmer) using an Access Labcyte Workstation with the Labcyte Echo 55×from a DMSO solution. For the chosen highest assay concentration of 100 μM, 150 nl of compound solution are transferred from a 10 mM DMSO compound stock solution. A series of 11 concentrations is transferred for each compound at which each concentration is fivefold lower than the previous one. DMSO is added such that every well has a total of 150 nl compound solution. 5 μL of 1 nM BCL6 protein in assay buffer (50 mM HEPES pH 7.3; 125 mM NaCl; 1 mM GSH; 0.01% Triton-X 100; 0.03% BSA) are added to the 150 nl of compounds. After 30 minutes incubation time at room temperature, 10 μL of a mix containing BCOR ULight peptide (100 nM final assay concentration) and Streptavidin-Europium (0.75 nM final assay concentration) are added. Plates are kept at room temperature. After 240 minutes incubation time the TR-FRET signal is measured in a PerkinElmer Envision HTS Multilabel Reader using the TR-FRET LANCE Ultra specs of PerkinElmer. Each plate contains negative controls (diluted DMSO instead of test compound; BCOR peptide and Streptavidin Europium mix with BCL6 protein) and positive controls (diluted DMSO instead of test compound; BCOR peptide and Streptavidin-Europium mix without BCL6 protein). Negative and positive control values are used for normalization.

Row | Compound | IC50 [nM]
1 | C[C@@H]1C[C@H](C)CN(c2ncc(Cl)c(Nc3ccc4c(c3)cc(O[C@H](C)C(=O)O)c(=O)n4C)n2)C1 (relative stereo) [Compound I-154] | 82
2 | CNC(=O)COc1cc2cc(Nc3nc(N4C[C@H](C)C[C@@H](C)C4)ncc3Cl)ccc2n(C)c1=O (single isomer, unassigned) [Compound I-5] | 12
3 | CNC(=O)COc1cc2cc(Nc3nc(N4C[C@@H](C)C[C@H](C)C4)ncc3Cl)ccc2n(C)c1=O (single isomer, unassigned) [Compound I-6] | 7
4 | CNC(=O)COc1cc2cc(Nc3nc(N4C[C@H](CO)N[C@@H](C)C4)ncc3Cl)ccc2n(C)c1=O (single isomer, unassigned) [Compound I-10] | 18
5 | CNC(=O)COc1cc2cc(Nc3nc(N4C[C@@H](CO)N[C@@H](C)C4)ncc3Cl)ccc2n(C)c1=O (single isomer, unassigned) [Compound I-11] | 13
6 | C[C@@H]1C[C@H](C)CN(c2ncc(Cl)c(Nc3ccc4c(c3)cc(OC[S@@+](C)[O-])c(=O)n4C)n2)C1 (single isomer, unassigned) [Compound I-173] | 37
7 | C[C@@H]1C[C@H](C)CN(c2ncc(Cl)c(Nc3ccc4c(c3)cc(OC[S+](C)[O-])c(=O)n4C)n2)C1 (single isomer, unassigned) [Compound I-174] | 16
8 | COC(=O)COc1cc2cc(Nc3nc(N4C[C@H](C)C[C@H](C)C4)ncc3Cl)ccc2n(C)c1=O [Compound I-1, methyl 2-{[6-({5-chloro-2-[cis-3,5-dimethylpiperidin-1-yl]pyrimidin-4-yl}amino)-1-methyl-2-oxo-1,2-dihydroquinolin-3-yl]oxy}acetate] | 10
9 | COC(=O)COc1cc2cc(Nc3nc(N4CCC(F)CC4)ncc3Cl)ccc2n(C)c1=O [Compound I-2, methyl 2-[(6-{[5-chloro-2-(4-fluoropiperidin-1-yl)pyrimidin-4-yl]amino}-1-methyl-2-oxo-1,2-dihydro-quinolin-3-yl)oxy]-acetate] | 9
10 | CNC(=O)COc1cc2cc(Nc3nc(N4C[C@H](C)C[C@H](C)C4)ncc3Cl)ccc2n(C)c1=O [Compound I-4, 2-[(6-{[5-chloro-2-(cis-3,5-dimethylpiperidin-1-yl)pyrimidin-4-yl]amino}-1-methyl-2-oxo-1,2-dihydro-quinolin-3-yl)oxy]-N-methylacetamide] | 3
11 | CNC(=O)COc1cc2cc(Nc3nc(N4C[C@H]5CC[C@@H](C4)O5)ncc3Cl)ccc2n(C)c1=O [Compound I-7, 2-({6-[(5-chloro-2-{8-oxa-3-azabicyclo[3.2.1]octan-3-yl}pyrimidin-4-yl)amino]-1-methyl-2-oxo-1,2-dihydroquinolin-3-yl}oxy)-N-methylacetamide] | 5
12 | CNC(=O)COc1cc2cc(Nc3nc(N4C[C@H](C)C[C@@H](NC)C4)ncc3Cl)ccc2n(C)c1=O [Compound I-8, 2-{[6-({5-chloro-2-[(3R,5R)-3-methyl-5-(methylamino)piperidin-1-yl]pyrimidin-4-yl}amino)-1-methyl-2-oxo-1,2-dihydroquinolin-3-yl]oxy}-N-methylacetamide] | 21
13 | CNC(=O)COc1cc2cc(Nc3nc(N4C[C@H](CO)N[C@H](C)C4)ncc3Cl)ccc2n(C)c1=O [Compound I-9, 2-{[6-({5-chloro-2-[(3R,5R)-3-(hydroxymethyl)-5-methylpiperazin-1-yl]pyrimidin-4-yl}amino)-1-methyl-2-oxo-1,2-dihydroquinolin-3-yl]oxy}-N-methylacetamide] | 41
14 | CNC(=O)COc1cc2cc(Nc3nc(N4CC(C)NC(CF)C4)ncc3Cl)ccc2n(C)c1=O (stereo not drawn) [Compound I-12, 2-{[6-({5-chloro-2-[3-(fluoromethyl)-5-methylpiperazin-1 yl]pyrimidin-4-yl}amino)-1-methyl-2-oxo-1,2-dihydroquinolin-3-yl]oxy}-N-methylacetamide] | 7
15 | CNC(=O)COc1cc2cc(Nc3nc(N4CC(C)C(C(=O)N(C)C)C(C)C4)ncc3Cl)ccc2n(C)c1=O (stereo not drawn) [Compound I-13, 1-[5-chloro-4-({1-methyl-3-[(methylcarbamoyl)-methoxy]-2-oxo-1,2-dihydroquinolin-6-yl}amino)pyrimidin-2-yl]-N,N,3,5-tetramethylpiperidine-4-carboxamide] | 5
16 | CNC(=O)COc1cc2cc(Nc3nc(N4C[C@H](C(F)(F)F)C[C@H](C(F)(F)F)C4)ncc3Cl)ccc2n(C)c1=O [Compound I-14, 2-{[6-({2-[cis-3,5-bis(trifluoromethyl)piperidin-1-yl]-5-chloropyrimidin-4-yl}amino)-1-methyl-2-oxo-1,2-dihydroquinolin-3-yl]oxy}-N-methyl-acetamide] | 20
17 | CNC(=O)COc1cc2cc(Nc3nc(N4CCN(c5ccccn5)CC4)ncc3Cl)ccc2n(C)c1=O [Compound I-15] | 32
18 | CNC(=O)COc1cc2cc(Nc3nc(N4CCN(CCN(C)C)C(=O)C4)ncc3Cl)ccc2n(C)c1=O [Compound I-16] | 10
19 | CNC(=O)COc1cc2cc(Nc3nc(N4CCCC[C@H]4C)ncc3Cl)ccc2n(C)c1=O [Compound I-17] | 8
20 | CNC(=O)COc1cc2cc(Nc3nc(N4CCN(C(=O)CN(C)C)CC4)ncc3Cl)ccc2n(C)c1=O [Compound I-18] | 7
21 | CNC(=O)COc1cc2cc(Nc3nc(N4CCCC(F)CC4)ncc3F)ccc2n(C)c1=O (stereo not drawn) [Compound I-21] | 12
22 | CNC(=O)COc1cc2cc(Nc3nc(N4CCC(F)CC4)ncc3F)ccc2n(C)c1=O [Compound I-22] | 10
23 | CNC(=O)COc1cc2cc(Nc3nc(N4C[C@H](C)C[C@H](C)C4)ncc3F)ccc2n(C)c1=O [Compound I-23] | 9
24 | CNC(=O)COc1cc2cc(Nc3nc(N4CC(C)(C)CC(C)(C)C4)ncc3Cl)ccc2n(C)c1=O [Compound I-24] | 13
25 | CNC(=O)COc1cc2cc(Nc3nc(N4CCC(F)(F)CC4)ncc3F)ccc2n(C)c1=O [Compound I-27] | 6
26 | CNC(=O)COc1cc2cc(Nc3nc(N4CCC(C(=O)N(C)C)CC4)ncc3F)ccc2n(C)c1=O [Compound I-28] | 12
27 | CNC(=O)COc1cc2cc(Nc3nc(N4CCC(C#N)CC4)ncc3Cl)ccc2n(C)c1=O [Compound I-30] | 5
28 | CNC(=O)COc1cc2cc(Nc3nc(N4CCC(C(F)(F)F)CC4)ncc3Cl)ccc2n(C)c1=O [Compound I-33] | 62
29 | CNC(=O)COc1cc2cc(Nc3nc(N4CCC(CCN5CCCCC5)CC4)ncc3Cl)ccc2n(C)c1=O [Compound I-43] | 6

Second part, the compound after the results:

Row | IC50 [nM] | Compound
30 | 7 | CNC(=O)COc1cc2cc(Nc3nc(N4CCN(CCOC)CC4)ncc3Cl)ccc2n(C)c1=O [Compound I-3, 2-{[6-({5-chloro-2-[4-(2-methoxyethyl)piperazin-1-yl]pyrimidin-4-yl}amino)-1-methyl-2-oxo-1,2-dihydroquinolin-3-yl]oxy}-N-methylacetamide]
31 | 6 | CNC(=O)COc1cc2cc(Nc3nc(N4CCCCC4)ncc3Cl)ccc2n(C)c1=O [Compound I-19]
32 | 6 | CNC(=O)COc1cc2cc(Nc3nc(N4CCN(CCN(C)C)CC4)ncc3Cl)ccc2n(C)c1=O [Compound I-20]
33 | 4 | CNC(=O)COc1cc2cc(Nc3nc(N4CCC(F)CC4)ncc3Cl)ccc2n(C)c1=O [Compound I-25]
34 | 4 | CNC(=O)COc1cc2cc(Nc3nc(N4CCC(F)(F)CC4)ncc3Cl)ccc2n(C)c1=O [Compound I-26]
35 | 10 | CNC(=O)COc1cc2cc(Nc3nc(N4CCCC(F)(F)C4)ncc3Cl)ccc2n(C)c1=O [Compound I-29]
36 | 6 | CNC(=O)COc1cc2cc(Nc3nc(N4CCC5(CC4)CC5)ncc3Cl)ccc2n(C)c1=O [Compound I-31]
37 | 5 | CNC(=O)COc1cc2cc(Nc3nc(N4CCC(O)(C(F)(F)F)CC4)ncc3Cl)ccc2n(C)c1=O [Compound I-32]
38 | 6 | CNC(=O)COc1cc2cc(Nc3nc(N4CCC(Cl)CC4)ncc3Cl)ccc2n(C)c1=O [Compound I-34]
39 | 8 | CNC(=O)COc1cc2cc(Nc3nc(N4CCC(C)CC4)ncc3Cl)ccc2n(C)c1=O [Compound I-35]
40 | 5 | CNC(=O)COc1cc2cc(Nc3nc(N4CCC5(CCN(C)CC5)CC4)ncc3Cl)ccc2n(C)c1=O [Compound I-36]
41 | 7 | CNC(=O)COc1cc2cc(Nc3nc(N4CCC(N5CCCCCC5)CC4)ncc3Cl)ccc2n(C)c1=O [Compound I-37]
42 | 35 | CCN1CCN(C2CCN(c3ncc(Cl)c(Nc4ccc5c(c4)cc(OCC(=O)NC)c(=O)n5C)n3)CC2)CC1 [Compound I-38]
43 | 9 | CNC(=O)COc1cc2cc(Nc3nc(N4CCC(N5CCC(C)CC5)CC4)ncc3Cl)ccc2n(C)c1=O [Compound I-40]
44 | 8 | CNC(=O)COc1cc2cc(Nc3nc(N4CCC(N5CCCC5)CC4)ncc3Cl)ccc2n(C)c1=O [Compound I-41]
45 | 9 | CNC(=O)COc1cc2cc(Nc3nc(N4CCC(N5CCCCC5)CC4)ncc3Cl)ccc2n(C)c1=O [Compound I-42]
